Assay: Pharmacokinetics of five absorbed components in rat serum after single or multiple gavage of BHGZD (UHPLC-Q-TRAP-MS/MS)
Settings: for AUC(0-inf) / AUC(0-t) / Cmax / MRT inf / MRT last / half-life / Tmax / CL / Vd: male, Lewis, rat, po
Excerpt: Male Lewis rats, weighing 200–240 g, were purchased from Beijing Charles River Experimental Animals Co. Ltd. (Beijing, China). […] Animal experiments were approved and supervised by the National Institutes of Health guide for the care and use of Laboratory animals. Every effort was made to minimize both the employed animal numbers as well as the potential discomfort of the animals throughout the study.
For single administration, rats were orally administrated with BHGZD powder at dose of 21.4 g/kg, which was equivalent to two-fold of clinical dose in human. […] For multiple administration, rats were intragastrically administered BHGZD (21.4 g/kg/day) once a day, for continuous 12 days. […] Serum was freshly prepared by centrifugation and stored at – 80 ℃ till analysis.
Quantification for five absorbed compounds of BHGZD in rat serum were achieved by using a Shimadzu ultra-high-performance liquid chromatography tandem ion trap quadrupole Q-TRAP 6500 plus mass spectrometry (UHPLC-Q-TRAP-MS/MS). Sample preparations were described above.
Chromatographic separation was carried out on a Poroshell 120 EC-C18 column (50 × 3.0 mm, 2.7 μm, Agilent, USA) with a flow rate 0.3 mL/min.
The optimized parameters for the mass spectrometer were set as follows: curtain gas, 35 psi; collision gas, medium; ionspray voltage, 4500 V; temperature, 550 °C; ion source gas 1 and 2, 55 psi. […] Data acquisition and analysis were achieved by OS-Q software (version 1.4.1.20719, AB Sciex, USA). Pharmacokinetic analysis was conducted by Drug and Statistic software (version 3.0, Shanghai, China).
The developed methodology was then applied for the in vivo pharmacokinetic evaluations of these five absorbed components. After single or multiple gavages of BHGZD, rat serum was collected at indicated time points, and the concentrations of five analyte were quantified accordingly.

[1] = serum, 21.4 g/kg, rat serum, BHGZD 21.4 g/kg oral gavage, single dose, n = 8, mean ± SEM

AUC(0-inf) (serum, 21.4 g/kg) [ng·h/mL]	AUC(0-t) (serum, 21.4 g/kg) [ng·h/mL]	Cmax (serum, 21.4 g/kg) [ng/mL]	MRT inf (serum, 21.4 g/kg) [h]	MRT last (serum, 21.4 g/kg) [h]	half-life (serum, 21.4 g/kg) [h]	Tmax (serum, 21.4 g/kg, rat serum after BHGZD gavage, regimen not given) [h]	Tmax [1] [h]	AUC(0-inf) (in vivo, 21.4 g/kg) [ng·h/mL]	AUC(0-t) (in vivo, 21.4 g/kg) [ng·h/mL]	CL (in vivo, 21.4 g/kg)	Cmax (in vivo, 21.4 g/kg) [ng/mL]	MRT inf (in vivo, 21.4 g/kg) [h]	MRT last (in vivo, 21.4 g/kg) [h]	Vd (in vivo, 21.4 g/kg)	half-life (in vivo, 21.4 g/kg) [h]	Tmax (in vivo, 21.4 g/kg) [h]	Tmax (serum, 21.4 g/kg/day, rat serum, BHGZD 21.4 g/kg/day gavage once a day for 12 days, multiple dose, sampled day 12, n = 8, mean ± SEM) [h]	SMILES	pattern of absorption and elimination in serum (rat serum, single or multiple gavages of BHGZD)
307 ± 120	110 ± 127	53.3 ± 32.6	10.5 ± 12.5	3.66 ± 1.03	2.36 ± 1.03	~0.3	0.37 ± 0.35	–	–	–	–	–	–	–	–	–	–	O=C(O)/C=C/c1ccccc1 [Cinnamic acid]	–
–	–	–	–	–	–	–	–	91.8 ± 44.2	67.3 ± 36.8	288,330 ± 150,321 L/h/kg	15.6 ± 8.97	5.83 ± 1.42	5.06 ± 1.37	867,518 ± 160,982 L/kg	2.99 ± 0.82	5.88 ± 2.85	–	CC1(C)[C@@H](O[C@H]2O[C@H](C(=O)O)[C@@H](O)[C@H](O)[C@H]2O[C@@H]2O[C@H](C(=O)O)[C@@H](O)[C@H](O)[C@H]2O)CC[C@]2(C)[C@H]3C(=O)C=C4[C@@H]5C[C@@](C)(C(=O)O)CC[C@]5(C)CC[C@@]4(C)[C@]3(C)CC[C@@H]12 [Glycyrrhizic acid]	–
–	–	–	–	–	–	–	–	298 ± 298	266 ± 306	228,709 ± 238,817 L/h/kg	48.1 ± 52.7	6.72 ± 6.64	3.6 ± 0.75	1,049,685 ± 1,125,516 L/kg	3.64 ± 4.82	2.56 ± 1.68	–	O=c1c2cc(O)c(O)cc2oc2cc(O)c([C@@H]3O[C@H](CO)[C@@H](O)[C@H](O)[C@H]3O)c(O)c12 [Mangiferin]	–
45.3 ± 13.9	35.6 ± 7.99	5.41 ± 1.23	9.92 ± 2.73	7.54 ± 1.15	4.98 ± 1.74	–	6.38 ± 1.69	–	–	–	–	–	–	–	–	–	4.62 ± 2.13	C[C@H]1CC[C@@]2(OC1)O[C@H]1C[C@H]3[C@@H]4CC[C@@H]5C[C@@H](O[C@@H]6O[C@H](CO)[C@H](O)[C@H](O)[C@H]6O[C@@H]6O[C@H](CO)[C@@H](O)[C@H](O)[C@H]6O)CC[C@]5(C)[C@H]4CC[C@]3(C)[C@H]1[C@@H]2C [Timosaponin AIII]	dual-peak response with prolonged pattern of absorption and elimination
